The values that follow come from patent US20050282747A1, “Methods and compositions for wound healing” (The Research Foundation of State University of New York at …, priority 2003, published 2005).

The test system of series [1] is NIH 3T3 fibroblasts. In words: Cell spreading on RGD-peptide coupled HA-DTPH/PEGDA hydrogel surface, NIH 3T3. It counts as cell-based. As to the method: (§1) Cell culture. Dermal fibroblasts from a person (CF-31) (Clonetics, San Diego) and NIH 3T3 fibroblast (ATCC) were routinely cultured in completed DMEM/F-12 medium supplied with 10% new-born calf serum (for NIH 3T3 fibroblast) or fetal bovine serum (for CF-31 fibroblast), 2 mM L-glutamine and 100 units/ml antibotic-antimycotic (GIBCO BRL, Life Technologies, Grand Island, N.Y.), and 50 μg/ml ascorbic acid (Sigma) at 37° C. in a humidified 5% CO2 incubator. Monolayers of fibroblasts in their growth phase (ca. 90% confluence) were dissociated with trypsin/1 mM EDTA in DPBS, centrifuged and resuspended in the serum free medium or complete medium.
Cell spreading on the RGD-peptides coupled HA-DTPH/PEGDA hydrogel surface. HA-DTPH/PEGDA hydrogels or hydrogel films in 24-well plate were rinsed with serum free medium or complete medium 3 times, and then CF-31 and NIH 3T3 fibroblasts were seeded on the surface of the hydrogel or hydrogel film surface at a density of 4×10^4/well. Then, 1 ml of serum free medium or complete medium was added into each well, and the cells were cultured at 37° C. in a humidified 5% CO2 incubator. At 2, 4, 8 and 18 h post seeding, 0.4 ml of 10% formalin solution (Sigma) was added into each well to fix cell for 15 min. The cells were then stained at room temperature with 0.1% crystal violet in 200 mM boric acid (pH 8.0) for 15 minutes. […]

Series [2] relates to NIH 3T3 fibroblasts. In words: Cell proliferation on the RGD-peptide coupled HA-DTPH/PEGDA hydrogel surface (MTS assay). Type of series: cell-based. The note with it: PEGDA 3400; for proliferation of NIH 3T3 fibroblasts on surface: in 24 h, peptide concentration in bulk 0.268 mM. The method, then: Cell proliferation on the RGD-peptide coupled HA-DTPH/PEGDA hydrogel surface. Peptide-coupled HA-DTPH/PEGDA hydrogels or hydrogel films in 24-well plates were rinsed 3 times with complete medium, and then CF-31 and NIH 3T3 fibroblasts were seeded on the surface of the hydrogel or hydrogel film surface at a density of 1×10^4/well. After that 1 ml of complete medium was added into each well, and the cells were cultured at 37° C. in a humidified 5% CO2 incubator and the medium was changed daily. At different time points (day 1, 2, 3 and 4), the cell number was determined by MTS assay (Cell-Titer 96 Proliferation Kit, Promega, Madison, Wis.) as previously described Shu, et al., Biomacromolecules 3:1304, 2002; Ren and Tang, Anticancer Res. 19:403, 1999) and the absorption recorded at 550 nm with an OPTI Max microplate reader (Molecular Devices). Cell numbers were obtained using standard curves generated from the assay.

Series [3] deals with NIH 3T3 fibroblasts. In words: Cell proliferation inside the RGD-peptide coupled HA-DTPH/PEGDA hydrogel (MTT assay, F-DA/PI staining). Type of series: cell-based. The note with it: NIH 3T3 encapsulated at 1×10^6/ml; day 15 compared to day 1. The method, then:
Cell proliferation inside the RGD-peptide coupled HA-DTPH/PEGDA hydrogel. NIH 3T3 fibroblasts were suspended in 1.25% (w/v) HA-DTPH solution in complete medium (pH 7.4) at a density of 1×10^6/ml, and then 1 ml of stock peptide-coupled PEGDA or blank PEGDA solution (see hydrogel preparation) was added into 4 ml of cell/HA-DTPH mixture solution. After mixed, 200 μl of the mixture of HA-DTPH/PEG-diacrylate/T31 fibroblasts was injected into each well of 24-well plates. After 1 h, 1.0 ml of complete medium was added into each well and incubated in 37° C. 5% CO2 incubator. The medium was changed every day without damaging the hydrogel. The viability of NIH 3T3 fibroblast inside hydrogel following 1, 5 and 15 d in vitro culture was determined by a double-staining procedure (Saha, et al., Dev. Comp. Immunol. 27:351, 2003) using fluorescein diacetate (F-DA) and propidium iodide (PI). Briefly, cell-hydrogel constructs were rinsed twice with DPBS buffer, stained with F-DA (0.02 mg/ml)(Molecular Probes, Eugene, Oreg.) and PI (0.2 μg/ml)(Sigma) at room temperature for 3 min, rinsed twice with DPBS buffer, stored on ice, and observed under confocal microscope (Zeiss Axioplan 2 Imaging System, LSM 5 Pa).
The cell proliferation inside hydrogel following in vitro culture of day 1, 5, 10 and 15 was determined by MTT (3-[4,5-dimethylthiazol-2-yl]-2,5-diphenyltetrazolium bromide) assay (Sigma). A 1% MTT in serum-free media solution was added to each well containing the cell-hydrogel construct. Active mitochondria metabolize the tetrazolium salt to form an insoluble formazin dye. After 8 h of incubation, the constructs were placed in 10 ml glass vials and 2 ml 0.04 N HCl in isopropanol was added to extract the formazin. The absorbance was recorded at 550 nm with an OPTI Max microplate reader (Molecular Devices) and was converted into a cell number based on standard curves.

A further series has as its system CF-31 fibroblasts. In words: Cell spreading on RGD-peptide coupled HA-DTPH/PEGDA hydrogel surface, CF-31. The note with it: for percentage of round cells / percentage of spreading cells: complete medium, 18 h post seeding. Type of series: cell-based, human. As to the method:
as §1
Cell spreading on the RGD-peptides coupled HA-DTPH/PEGDA hydrogel surface. HA-DTPH/PEGDA hydrogels or hydrogel films in 24-well plate were rinsed with serum free medium or complete medium 3 times, and then CF-31 and NIH 3T3 fibroblasts were seeded on the surface of the hydrogel or hydrogel film surface at a density of 4×10^4/well. Then, 1 ml of serum free medium or complete medium was added into each well, and the cells were cultured at 37° C. in a humidified 5% CO2 incubator. At 2, 4, 8 and 18 h post seeding, 0.4 ml of 10% formalin solution (Sigma) was added into each well to fix cell for 15 min. The cells were then stained at room temperature with 0.1% crystal violet in 200 mM boric acid (pH 8.0) for 15 minutes. Photomicrographs of the cytoplasmic-stained cells were taken a 100×total magnification using an inverted Nikon microscope with a CCD camera on a minimum of five random fields per well (n=3 per composition). The bundled Spot 3.0 software (Diagnostic Instruments, Sterling Heights, MI) was used to classify the cell morphology into 3 categories viz. round, partially spread or fully spread as reported by Neff etc[47]. It was defined that cells with surface area <2000 pixels^2 were completely round, 2000 pixels^2 <cells with area <8000 pixels^2 had few cytoplasmic extensions although they maintained a somewhat round appearance, and cells with surface areas >8000 pixels^2 were fully spreading and had multiple cytoplasmic extensions in various directions.

Series [4] relates to NIH 3T3 fibroblasts. In words: Injectable fibrous tissue regeneration in nude mouse, histology and procollagen immunohistochemistry. It counts as in vivo, nude mice. As to the method: RGD-peptide coupled HA-DTPH/PEGDA hydrogel for injectable fibrous tissue regeneration in nude mouse. Animal experiments were carried out according to NIH guidelines for the care and use of laboratory animals (NIH publication #85-23 rev. 1985). Male nude mice (n=12) (Simonsen Laboratories Inc., Gilroy, Calif.), 4-6 weeks old were anesthetized with 2.5% isoflurane using a VetEquip inhalation anesthesia system (Pleasanton, Calif.). NIH 3T3 fibroblasts were suspended in 1.25% (w/v) HA-DTPH solution in complete medium (pH 7.4) at a density of 50×10^6 cell/ml, and then 1 ml stock CRGDS-coupled PEGDA (peptide concentration 10/100) or blank PEGDA (see 2.4 hydrogel preparation) was added into 4 ml cell/HA-DTPH mixture solution and mixed. Each nude mouse received four 300 μl s.c. dorsal injections by means of an 18-gauge needle under the dorsal panniculus camosus (two 300 μl solution with cells and two 300 μl solution without cells as control). At each time point (4 and 8 weeks after implantation), two nude mice were sacrificed, and the implants with the surrounding tissues were removed from the mouse, fixed in 10% buffered formalin solution (Sigma) for 24 h, embedded in paraffin, cut into 5-μm sections, and mounted onto slides.
Histological and immunohistochemical staining. […]

The mark [5] stands for this setting: PEG spacer molecular weight 3400, peptide concentration in bulk 0.268 mM.
[6] abbreviates: peptide concentration in bulk 0.0054 mM.
Setting [7] is: peptide concentration in bulk 0.0268 mM.
[8] abbreviates: peptide concentration in bulk 0.134 mM.
Setting [9] is: peptide concentration in bulk 0.268 mM.

Turning to CRDGS [reference compound], the “cell morphology on hydrogel surface” value in the series on NIH 3T3 fibroblasts [1] (4 and 8 h post-seeding) is reported as “the cells were rounded”. For the same substance, the “proliferation of NIH 3T3 fibroblasts on surface” value (shortened to “proliferation … on surface”) with NIH 3T3 fibroblasts [2] is “no spreading or proliferation was observed”. Moreover, the “cell proliferation inside the hydrogel” value in the series with NIH 3T3 fibroblasts [3] was 245%. Also, in the series on CF-31 fibroblasts (CF-31, serum free medium), the “cell attachment and spreading” value is reported as “failed to promote cell spreading”.

For the substance CRGDS, the cell area entry in the series with NIH 3T3 fibroblasts [1] (at 4 and 8 h) is listed as “larger than that for CCRGDS”. Besides, the “cell density relative to cell culture polystyrene control” value in the series with NIH 3T3 fibroblasts [2] (hydrogel film surface, 4 days culture, CRGDS concentration in bulk 0.268 mM) was “ca. 80%”. Further, in the series with NIH 3T3 fibroblasts [2], the “proliferation … on surface” value came out at 1.64 fold. The “cell proliferation inside the hydrogel” value with NIH 3T3 fibroblasts [3] was determined as 253%. In the series on NIH 3T3 fibroblasts [4] (cell-seeded hydrogel, 4 weeks post-injection), the “fibrous tissue and procollagen versus hydrogel lacking the peptide” value was “More uniform fibrous tissue and procollagen”. The “signs of biological incompatibility (necrosis or damage to the surrounding tissues)” value with NIH 3T3 fibroblasts [4] (s.c. injection in nude mice, gel formed in vivo) is on record as “No signs of biological incompatibility”. Also, the round cell percent in the series with CF-31 fibroblasts (PEG spacer molecular weight 700, peptide concentration in bulk 0.268 mM) is 75.6%; in the series with CF-31 fibroblasts (setting [5]), 9.4%. Besides, the “spreading percent of CF-31 fibroblast” value in the series with CF-31 fibroblasts (setting [5]) was 53%. The results for the “percentage of round cells” value in the series on CF-31 fibroblasts (setting [6]) and in the series on CF-31 fibroblasts (setting [9]) were 51.2% and 18%, respectively. Besides, the “percentage of spreading cells” value in the series on CF-31 fibroblasts (setting [6]) came out at 19.1%; in the series with CF-31 fibroblasts (setting [7]), 31.3%; in the series with CF-31 fibroblasts (setting [8]), 48.2%; in the series on CF-31 fibroblasts (setting [9]), 53.0%.

With CCRGDS, the “proliferation … on surface” value in the series on NIH 3T3 fibroblasts [2] is 1.50 fold. Also, the “cell proliferation inside the hydrogel” value in the series with NIH 3T3 fibroblasts [3] is listed as 253%. Besides, the “percentage of spreading cells” value is 8.3% with CF-31 fibroblasts (setting [6]), 12.4% in the series with CF-31 fibroblasts (setting [7]), 36.8% in the series with CF-31 fibroblasts (setting [8]) and 46.5% in the series with CF-31 fibroblasts (setting [9]).
